Reference: PMC4978996 (Scientific Reports, 2016)
Where “and” joins values, the source holds several entries; their conditions need not be identical. Equal entries are not always repeated.

Experiments:
ChAT = system: ChAT; parameters: method as in literature; details: ChAT inhibition, experimentally determined value taken from literature; ref literature; cited from earlier work
BuChE = target: T1, BuChE (Homo sapiens, UniProt P06276); assay: biochemical
T1 construct: a 1:400 diluted solution of a pooled human plasma sample was used; from tissue; host or cells: pooled human plasma
T1 sequence (P06276 29-602): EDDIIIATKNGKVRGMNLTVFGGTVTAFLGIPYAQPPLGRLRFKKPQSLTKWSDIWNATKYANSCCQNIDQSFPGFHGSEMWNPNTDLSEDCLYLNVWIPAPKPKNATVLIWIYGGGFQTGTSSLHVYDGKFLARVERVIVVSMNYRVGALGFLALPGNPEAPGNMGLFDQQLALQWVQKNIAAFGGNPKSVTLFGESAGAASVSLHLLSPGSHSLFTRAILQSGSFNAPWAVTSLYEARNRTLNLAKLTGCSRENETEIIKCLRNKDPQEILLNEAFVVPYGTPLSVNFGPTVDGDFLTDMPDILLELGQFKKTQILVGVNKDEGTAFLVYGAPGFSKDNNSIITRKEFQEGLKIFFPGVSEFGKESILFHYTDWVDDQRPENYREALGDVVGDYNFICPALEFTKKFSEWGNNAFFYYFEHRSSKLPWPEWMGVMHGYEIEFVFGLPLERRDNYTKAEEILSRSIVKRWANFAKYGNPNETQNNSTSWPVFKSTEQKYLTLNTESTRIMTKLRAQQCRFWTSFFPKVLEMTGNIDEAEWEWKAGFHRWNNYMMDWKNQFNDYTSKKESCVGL
Procedure: (§1) A modified version of Ellman’s colorimetric assay was used for the enzymatic activity of BuChE and AChE, as described previously. For BuChE activity, 50 μL/well of a 1:400 diluted solution of a pooled human plasma sample was used. For AChE activity, the 1:400 diluted pooled human plasma samples had been supplied with 50 ng/ml of purified AChE protein (Sigma). These were preincubated with 50 μL/wells of different concentrations of α-NETA for 30 minutes at room temperature. Then, 100 μL of a cocktail (Na/K phosphate buffer, containing 5,5′-dithiobis(2-nitrobenzoic acid) (DTNB, final concentration 0.4 mM) and butyrylthiocholine iodide (Sigma, final concentration 5 mM) or acetylthiocholine iodide (Sigma, final concentration 0.5 mM) were added and the changes in absorbance was monitored at one minutes intervals at 412 nm wavelength. For the AChE activity, the cocktail also contained the selective BuChE inhibitor ethopropazine (Sigma, final concentration 0.1 mM).

AChE = target: T2, AChE (Homo sapiens, UniProt P22303); assay: Modified Ellman's colorimetric assay, AChE activity; format: biochemical
T2 construct: purchased Sigma
T2 sequence (P22303 32-614): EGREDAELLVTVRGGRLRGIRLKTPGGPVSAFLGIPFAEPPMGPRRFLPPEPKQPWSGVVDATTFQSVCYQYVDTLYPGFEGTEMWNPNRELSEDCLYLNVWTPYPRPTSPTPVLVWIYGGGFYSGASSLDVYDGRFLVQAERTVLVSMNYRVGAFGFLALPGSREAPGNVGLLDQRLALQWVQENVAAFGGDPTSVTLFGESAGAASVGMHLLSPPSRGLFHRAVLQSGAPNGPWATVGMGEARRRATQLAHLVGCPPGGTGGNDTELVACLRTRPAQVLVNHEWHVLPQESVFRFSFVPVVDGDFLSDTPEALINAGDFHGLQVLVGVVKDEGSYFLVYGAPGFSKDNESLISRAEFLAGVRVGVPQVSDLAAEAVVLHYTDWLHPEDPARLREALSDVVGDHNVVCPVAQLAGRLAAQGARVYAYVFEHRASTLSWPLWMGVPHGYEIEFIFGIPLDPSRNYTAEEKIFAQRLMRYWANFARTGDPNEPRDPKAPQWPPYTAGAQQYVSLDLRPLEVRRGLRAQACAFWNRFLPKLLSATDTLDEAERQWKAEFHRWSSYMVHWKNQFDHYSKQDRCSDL
Procedure: as §1

recombinant human ChAT = target: T3, recombinant human ChAT (Homo sapiens, UniProt P28329); assay: Colorimetric ChAT assay with recombinant human ChAT protein; format: biochemical
T3 construct: His6 (N); made in house; host or cells: E. coli BL21 Rosetta2
T3 sequence (P28329 1-630 isoform P28329-3): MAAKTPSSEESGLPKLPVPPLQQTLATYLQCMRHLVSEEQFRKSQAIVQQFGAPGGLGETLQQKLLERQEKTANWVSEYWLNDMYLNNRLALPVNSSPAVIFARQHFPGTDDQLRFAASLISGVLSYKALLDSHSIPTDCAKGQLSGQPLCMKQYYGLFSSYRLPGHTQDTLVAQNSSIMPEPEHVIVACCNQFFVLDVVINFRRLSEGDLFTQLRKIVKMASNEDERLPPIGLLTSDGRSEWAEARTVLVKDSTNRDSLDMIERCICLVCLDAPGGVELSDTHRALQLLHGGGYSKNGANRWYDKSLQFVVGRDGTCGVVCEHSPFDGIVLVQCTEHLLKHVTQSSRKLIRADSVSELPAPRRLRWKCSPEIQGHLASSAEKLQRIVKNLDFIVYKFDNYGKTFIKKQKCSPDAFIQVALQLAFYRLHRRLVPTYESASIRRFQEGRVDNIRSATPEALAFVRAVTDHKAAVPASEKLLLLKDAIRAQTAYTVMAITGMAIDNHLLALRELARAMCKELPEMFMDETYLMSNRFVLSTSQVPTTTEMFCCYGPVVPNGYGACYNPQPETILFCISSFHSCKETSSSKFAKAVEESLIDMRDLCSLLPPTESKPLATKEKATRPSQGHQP
Procedure: ChAT activity was measured with a new colorimetric assay as described previously, using recombinant ChAT protein. Briefly, 20 μL/wells of 1.5 μg/ml of the recombinant ChAT was incubated with 20 μL/well of different concentrations of α-NETA for 30 minutes at room temperature in dilution buffer (10 mM Tris-HCl, pH 7.4, 150 mM NaCl, 1.0 mM EDTA, 0.05% (v/v) Triton X-100). […]
Then 50 μl of a cocktail-B [phosphate buffered saline, containing 0.93 U/ml choline oxidase (C5896, Sigma-Aldrich), 1/5000 U streptavidin-horseradish peroxidase, 6.3 mM phenol, and 3 mM 4-aminoantipyrine (A4382, Sigma-Aldrich)] was added to each sample including the standards. Absorbance was then monitored using a microplate spectrophotometer reader (Infinite M1000, Tecan) at 500 nm wavelength. ChAT activity (nmol/min/mg of recombinant protein) was calculated according to the following formula: ChAT activity [ChBL-ChS]/t/m, where ChBL is the measured number of mole of choline in control wells lacking the inhibitor and ChAT, ChS is the measured number of mole of choline in the sample wells, the t is the incubation time and m is the mass of ChAT protein added per sample well. […]

[1] = system: purified human placental ChAT; parameters: method as in PMID 3361452; details: cited from earlier work

SMILES: C[n+]1ccc(/C=C/c2cccc3ccccc23)cc1 [Compound 1]
- Actual pIC50 / Observed pIC50 (ChAT): 6.33

SMILES: C[n+]1ccc(/C=C/c2cccc(Br)c2)cc1 [Compound 2]
- Actual pIC50 / Observed pIC50 (ChAT): 5.83

SMILES: C[n+]1ccc(/C=C/c2cccc(Cl)c2)cc1 [Compound 3]
- Actual pIC50 / Observed pIC50 (ChAT): 5.64

SMILES: C[n+]1ccc(/C=C/c2ccc(Br)cc2)cc1 [Compound 4]
- Actual pIC50 / Observed pIC50 (ChAT): 5.59

SMILES: C[n+]1ccc(/C=C/c2ccc(Cl)c(Cl)c2)cc1 [Compound 5]
- Actual pIC50 / Observed pIC50 (ChAT): 5.48

SMILES: C[n+]1ccc(/C=C/c2ccc(Cl)cc2)cc1 [Compound 6]
- Actual pIC50 / Observed pIC50 (ChAT): 5.16

SMILES: C[n+]1ccc(/C=C/c2ccccc2)cc1 [Compound 7]
- Actual pIC50 / Observed pIC50 (ChAT): 4.83

SMILES: Cc1ccc(/C=C/c2cc[n+](C)cc2)cc1 [Compound 8]
- Actual pIC50 / Observed pIC50 (ChAT): 4.70

SMILES: C[n+]1ccc(/C=C/c2ccc(F)cc2)cc1 [Compound 9]
- Actual pIC50 / Observed pIC50 (ChAT): 4.68

SMILES: C[n+]1ccc(/C=C/c2ccccc2Cl)cc1 [Compound 10]
- Actual pIC50 / Observed pIC50 (ChAT): 4.56

SMILES: C[n+]1ccc(/C=C/c2cccc([N+](=O)[O-])c2)cc1 [Compound 11]
- Actual pIC50 / Observed pIC50 (ChAT): 3.83

SMILES: C[n+]1ccc(/C=C/c2ccc([N+](=O)[O-])cc2)cc1 [Compound 12]
- Actual pIC50 / Observed pIC50 (ChAT): 3.70

SMILES: Cc1c[n+](C)ccc1/C=C/c1cccc2ccccc12 [Compound 13]
- Actual pIC50 / Observed pIC50 (ChAT): 6.40

SMILES: Cc1c[n+](C)ccc1/C=C/c1cccc(Cl)c1 [Compound 14]
- Actual pIC50 / Observed pIC50 (ChAT): 5.80

SMILES: Cc1c[n+](C)ccc1/C=C/c1ccc(Cl)c(Cl)c1 [Compound 15]
- Actual pIC50 / Observed pIC50 (ChAT): 5.77

SMILES: Cc1c[n+](C)ccc1/C=C/c1ccccc1 [Compound 16]
- Actual pIC50 / Observed pIC50 (ChAT): 5.30

SMILES: Cc1c[n+](C)ccc1/C=C/c1ccccc1Cl [Compound 17]
- Actual pIC50 / Observed pIC50 (ChAT): 4.77

SMILES: Cc1c[n+](C)ccc1/C=C/c1c[nH]c2ccccc12 [Compound 18]
- Actual pIC50 / Observed pIC50 (ChAT): 4.41

SMILES: OCC[n+]1ccc(/C=C/c2cccc(Br)c2)cc1 [Compound 19]
- Actual pIC50 / Observed pIC50 (ChAT): 5.38

SMILES: OCC[n+]1ccc(/C=C/c2cccc(Cl)c2)cc1 [Compound 20]
- Actual pIC50 / Observed pIC50 (ChAT): 5.62

SMILES: C[n+]1ccc(/C=C/c2ccccc2)c2ccccc21 [Compound 21]
- Actual pIC50 / Observed pIC50 (ChAT): 5.46

SMILES: C[n+]1ccc(/C=C/c2cccs2)c2ccccc21 [Compound 22]
- Actual pIC50 / Observed pIC50 (ChAT): 3.60

SMILES: C[n+]1ccc(/C=C/c2cccnc2)c2ccccc21 [Compound 23]
- Actual pIC50 / Observed pIC50 (ChAT): 3.22

SMILES: OCC[n+]1ccc(/C=C/c2cccc3ccccc23)c2ccccc21 [Compound 24]
- Actual pIC50 / Observed pIC50 (ChAT): 6.28

SMILES: OCC[n+]1ccc(/C=C/c2ccccc2)c2ccccc21 [Compound 25]
- Actual pIC50 / Observed pIC50 (ChAT): 5.54

SMILES: C[N+](C)(C)CCC(=O)c1cccc2ccccc12.[I-] [α-NETA, 2-(α-naphthoyl) ethyltrimethylammonium iodide]
- inhibition at 3 µM (BuChE; at a concentration of 3 μM): 10%
- selectivity for ChAT relative to BuChE (BuChE; based on IC50 ratios): ~ 378 fold
- IC50 (BuChE; pooled human plasma, 30 min preincubation): ~30 µM and 33.3 µM
- IC50 (AChE; 30 min preincubation): ~30 µM and 34.2 µM
- inhibition at 10 µM (AChE; at a concentration of 10 μM): 10%
- selectivity for ChAT compared to AChE (AChE; based on IC50 ratios): 388 fold and ~ 388 fold
- higher potency as ChAT inhibitor in this system than reported (recombinant human ChAT; IC50 88 nM versus reported ~9 μM): ~ 100 folds
- IC50 (recombinant human ChAT; recombinant human ChAT, 30 min preincubation): ~0.088 µM and 0.088 µM
- Observed pIC50 (reported pIC50) [1]: 5.05
- IC50 ([1]; read-out: IC50 (reported, ChAT)): ~9 µM
